Legend:
Assay type in all cases: in vivo
[1] = tested on: ivy-leaved morning glory (Ipomoea hederacea); test: Test G Pre-Emergence Protocol; settings: Ipomoea, pre-emergence, 312 h, evaluated after 13 days; for pest or weed control at 15.625 g/ha: 15.625 g ai/ha, read-out: Morning-glory, Ivy-leaved damage rating (100=total damage to plant; 0=no damage to plant); for pest or weed control at 62.5 g/ha: 62.5 g ai/ha, 100=total damage to plant, 0=no damage to plant, read-out: plant damage rating, Morningglory, Ivy-leaved; for pest or weed control at 250 g/ha: 250 g ai/ha, read-out: Morningglory, Ivy-leaved damage rating (100=total damage to plant; 0=no damage to plant)
Summary of the method: (§1)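 Glasshouse pre-emergence test: soil-sown seeds, sprayed after 1 d at 15.625, 62.5 or 250 g/ha. Conditions 24/16° C day/night, 14 h light, 65% humidity, watering twice daily. Rating 13 d post-spray (100 = total damage).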

[2] = tested on: velvetleaf (Abutilon theophrasti); test: Test G Pre-Emergence Protocol; settings: Abutilon theophrasti, pre-emergence, 312 h, evaluated after 13 days; for pest or weed control at 15.625 g/ha: 15.625 g ai/ha; for pest or weed control at 15.625 g/ha / pest or weed control at 250 g/ha: read-out: Velvetleaf damage rating (100=total damage to plant; 0=no damage to plant); for pest or weed control at 62.5 g/ha: 62.5 g ai/ha, 100=total damage to plant, 0=no damage to plant, read-out: plant damage rating, Velvetleaf; for pest or weed control at 250 g/ha: 250 g ai/ha
Summary of the method: as §1

[3] = tested on: giant foxtail (Setaria faberi); test: Test G Pre-Emergence Protocol; settings: Setaria faberi, pre-emergence, 312 h, evaluated after 13 days; for pest or weed control at 15.625 g/ha: 15.625 g ai/ha; for pest or weed control at 15.625 g/ha / pest or weed control at 250 g/ha: read-out: Foxtail, Giant damage rating (100=total damage to plant; 0=no damage to plant); for pest or weed control at 62.5 g/ha: 62.5 g ai/ha, 100=total damage to plant, 0=no damage to plant, read-out: plant damage rating, Foxtail, Giant; for pest or weed control at 250 g/ha: 250 g ai/ha
Summary of the method: as §1

[4] = tested on: barnyardgrass (Echinochloa crus-galli); test: Test G Pre-Emergence Protocol; settings: Echinochloa crus-galli, pre-emergence, 312 h, evaluated after 13 days; for pest or weed control at 15.625 g/ha: 15.625 g ai/ha, read-out: Barnyard grass damage rating (100=total damage to plant; 0=no damage to plant); for pest or weed control at 62.5 g/ha: 62.5 g ai/ha, 100=total damage to plant, 0=no damage to plant, read-out: plant damage rating, Barnyardgrass; for pest or weed control at 250 g/ha: 250 g ai/ha, read-out: Barnyardgrass damage rating (100=total damage to plant; 0=no damage to plant)
Summary of the method: as §1

corn (Zea mays) [5] = test: Test G Pre-Emergence Protocol; settings: Zea mays, pre-emergence, 312 h, evaluated after 13 days; for plant injury at 15.625 g/ha: 15.625 g ai/ha; for plant injury at 15.625 g/ha / plant injury at 250 g/ha: read-out: Corn damage rating (100=total damage to plant; 0=no damage to plant); for plant injury at 62.5 g/ha: 62.5 g ai/ha, 100=total damage to plant, 0=no damage to plant, read-out: plant damage rating, Corn; for plant injury at 250 g/ha: 250 g ai/ha
Summary of the method: as §1

[6] = tested on: redroot pigweed (Amaranthus retroflexus); test: Test G Pre-Emergence Protocol; settings: Amaranthus retroflexus, pre-emergence, 312 h, evaluated after 13 days; for pest or weed control at 15.625 g/ha: 15.625 g ai/ha; for pest or weed control at 15.625 g/ha / pest or weed control at 250 g/ha: read-out: Pigweed, Redroot damage rating (100=total damage to plant; 0=no damage to plant); for pest or weed control at 62.5 g/ha: 62.5 g ai/ha, 100=total damage to plant, 0=no damage to plant, read-out: plant damage rating, Pigweed, Redroot; for pest or weed control at 250 g/ha: 250 g ai/ha
Summary of the method: as §1

[7] = tested on: ivy-leaved morning glory (Ipomoea hederacea); test: Test G Post-Emergence Protocol; settings: Ipomoea, post-emergence, 312 h; for pest or weed control at 15.625 g/ha: 15.625 g ai/ha, evaluated after 13 days (100=total damage to plant; 0=no damage to plant), read-out: Morningglory, Ivy-leaved damage rating; for pest or weed control at 62.5 g/ha: 62.5 g ai/ha, read-out: Morningglory, Ivy-leaved damage rating (100=total damage to plant; 0=no damage to plant); for pest or weed control at 62.5 g/ha / pest or weed control at 250 g/ha: evaluated after 13 days; for pest or weed control at 250 g/ha: 250 g ai/ha, read-out: damage to plant, Morningglory, Ivy-leaved (100=total damage to plant; 0=no damage to plant)
Summary of the method: (§2)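 Seedlings grown 8 days in soil in a glasshouse (24/16 °C day/night, 14 h light, 65% humidity) were sprayed post-emergence with compound in acetone/water 50:50 plus 0.5% Tween 20 at 15.625, 62.5 or 250 g/ha. Damage was scored after 13 days on a 0–100 scale (100 = total damage).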

[8] = tested on: velvetleaf (Abutilon theophrasti); test: Test G Post-Emergence Protocol; settings: Abutilon theophrasti, post-emergence, 312 h; for pest or weed control at 15.625 g/ha: 15.625 g ai/ha, evaluated after 13 days (100=total damage to plant; 0=no damage to plant), read-out: Velvetleaf damage rating; for pest or weed control at 62.5 g/ha: 62.5 g ai/ha, read-out: Velvetleaf damage rating (100=total damage to plant; 0=no damage to plant); for pest or weed control at 62.5 g/ha / pest or weed control at 250 g/ha: evaluated after 13 days; for pest or weed control at 250 g/ha: 250 g ai/ha, read-out: damage to plant, Velvetleaf (100=total damage to plant; 0=no damage to plant)
Summary of the method: as §2

[9] = tested on: giant foxtail (Setaria faberi); test: Test G Post-Emergence Protocol; settings: Setaria faberi, post-emergence, 312 h; for pest or weed control at 15.625 g/ha: 15.625 g ai/ha, evaluated after 13 days (100=total damage to plant; 0=no damage to plant), read-out: Foxtail, Giant damage rating; for pest or weed control at 62.5 g/ha: 62.5 g ai/ha, read-out: Foxtail, Giant damage rating (100=total damage to plant; 0=no damage to plant); for pest or weed control at 62.5 g/ha / pest or weed control at 250 g/ha: evaluated after 13 days; for pest or weed control at 250 g/ha: 250 g ai/ha, read-out: damage to plant, Foxtail, Giant (100=total damage to plant; 0=no damage to plant)
Summary of the method: as §2

[10] = tested on: barnyardgrass (Echinochloa crus-galli); test: Test G Post-Emergence Protocol; settings: Echinochloa crus-galli, post-emergence, 312 h; for pest or weed control at 15.625 g/ha: 15.625 g ai/ha, evaluated after 13 days (100=total damage to plant; 0=no damage to plant), read-out: Barnyardgrass damage rating; for pest or weed control at 62.5 g/ha: 62.5 g ai/ha, read-out: Barnyardgrass damage rating (100=total damage to plant; 0=no damage to plant); for pest or weed control at 62.5 g/ha / pest or weed control at 250 g/ha: evaluated after 13 days; for pest or weed control at 250 g/ha: 250 g ai/ha, read-out: damage to plant, Barnyardgrass (100=total damage to plant; 0=no damage to plant)
Summary of the method: as §2

corn (Zea mays) [11] = test: Test G Post-Emergence Protocol; settings: Zea mays, post-emergence, 312 h; for plant injury at 15.625 g/ha: 15.625 g ai/ha, evaluated after 13 days (100=total damage to plant; 0=no damage to plant), read-out: Corn damage rating; for plant injury at 62.5 g/ha: 62.5 g ai/ha, read-out: Corn damage rating (100=total damage to plant; 0=no damage to plant); for plant injury at 62.5 g/ha / plant injury at 250 g/ha: evaluated after 13 days; for plant injury at 250 g/ha: 250 g ai/ha, read-out: damage to plant, Corn (100=total damage to plant; 0=no damage to plant)
Summary of the method: as §2

[12] = tested on: redroot pigweed (Amaranthus retroflexus); test: Test G Post-Emergence Protocol; settings: Amaranthus retroflexus, post-emergence, 312 h; for pest or weed control at 15.625 g/ha: 15.625 g ai/ha, evaluated after 13 days (100=total damage to plant; 0=no damage to plant), read-out: Pigweed, Redroot damage rating; for pest or weed control at 62.5 g/ha: 62.5 g ai/ha, read-out: Pigweed, Redroot damage rating (100=total damage to plant; 0=no damage to plant); for pest or weed control at 62.5 g/ha / pest or weed control at 250 g/ha: evaluated after 13 days; for pest or weed control at 250 g/ha: 250 g ai/ha, read-out: damage to plant, Pigweed, Redroot (100=total damage to plant; 0=no damage to plant)
Summary of the method: as §2

CN1C[C@@H](c2ccc(C(F)(F)F)cc2)[C@H](C(=O)Nc2cccnn2)C1=O (racemic) [Compound 1577]
0%: pest or weed control at 15.625 g/ha [1] | pest or weed control at 62.5 g/ha [1] | pest or weed control at 250 g/ha [1] | pest or weed control at 15.625 g/ha [2] | pest or weed control at 62.5 g/ha [2] | pest or weed control at 250 g/ha [2] | pest or weed control at 15.625 g/ha [3] | pest or weed control at 62.5 g/ha [3] | pest or weed control at 250 g/ha [3] | pest or weed control at 15.625 g/ha [4] | pest or weed control at 62.5 g/ha [4] | pest or weed control at 250 g/ha [4] | plant injury at 15.625 g/ha (corn (Zea mays) [5]) | plant injury at 62.5 g/ha (corn (Zea mays) [5]) | plant injury at 250 g/ha (corn (Zea mays) [5]) | pest or weed control at 15.625 g/ha [6] | pest or weed control at 62.5 g/ha [6] | pest or weed control at 250 g/ha [6] | pest or weed control at 15.625 g/ha [7] | pest or weed control at 62.5 g/ha [7] | pest or weed control at 250 g/ha [7] | pest or weed control at 15.625 g/ha [8] | pest or weed control at 62.5 g/ha [8] | pest or weed control at 250 g/ha [8] | pest or weed control at 15.625 g/ha [9] | pest or weed control at 62.5 g/ha [9] | pest or weed control at 250 g/ha [9] | pest or weed control at 15.625 g/ha [10] | pest or weed control at 62.5 g/ha [10] | pest or weed control at 250 g/ha [10] | plant injury at 15.625 g/ha (corn (Zea mays) [11]) | plant injury at 62.5 g/ha (corn (Zea mays) [11]) | plant injury at 250 g/ha (corn (Zea mays) [11]) | pest or weed control at 15.625 g/ha [12] | pest or weed control at 62.5 g/ha [12] | pest or weed control at 250 g/ha [12]

CN1C[C@@H](c2ccc(C(F)(F)F)cc2)[C@H](C(=O)Nc2nnc(C(F)(F)F)o2)C1=O (racemic) [Compound 1604]
0%: pest or weed control at 15.625 g/ha [1] | pest or weed control at 62.5 g/ha [1] | pest or weed control at 250 g/ha [1] | pest or weed control at 15.625 g/ha [2] | pest or weed control at 62.5 g/ha [2] | pest or weed control at 250 g/ha [2] | pest or weed control at 15.625 g/ha [3] | pest or weed control at 62.5 g/ha [3] | pest or weed control at 250 g/ha [3] | pest or weed control at 15.625 g/ha [4] | pest or weed control at 62.5 g/ha [4] | pest or weed control at 250 g/ha [4] | plant injury at 15.625 g/ha (corn (Zea mays) [5]) | plant injury at 62.5 g/ha (corn (Zea mays) [5]) | plant injury at 250 g/ha (corn (Zea mays) [5]) | pest or weed control at 15.625 g/ha [6] | pest or weed control at 62.5 g/ha [6] | pest or weed control at 250 g/ha [6] | pest or weed control at 15.625 g/ha [7] | pest or weed control at 62.5 g/ha [7] | pest or weed control at 250 g/ha [7] | pest or weed control at 15.625 g/ha [8] | pest or weed control at 62.5 g/ha [8] | pest or weed control at 250 g/ha [8] | pest or weed control at 15.625 g/ha [9] | pest or weed control at 62.5 g/ha [9] | pest or weed control at 250 g/ha [9] | pest or weed control at 15.625 g/ha [10] | pest or weed control at 62.5 g/ha [10] | pest or weed control at 250 g/ha [10] | plant injury at 15.625 g/ha (corn (Zea mays) [11]) | plant injury at 62.5 g/ha (corn (Zea mays) [11]) | plant injury at 250 g/ha (corn (Zea mays) [11]) | pest or weed control at 15.625 g/ha [12] | pest or weed control at 62.5 g/ha [12] | pest or weed control at 250 g/ha [12]

— patent US12077503B2, “Substituted cyclic amides and their use as herbicides” (FMC CORPORATION, priority 2015, dated 2024)
